Holding throughout (test): growth of human tumour cells (NCI), 48 h
The test system of assay [1] is CCRF-CEM.
Assay [2] has as its system EKVX.
Assay [3] deals with HOP-62.
For assay [4], the system named is K562.
Assay [5] deals with NCI-H23.
Assay [6] has as its system NCI-H522.
In assay [7] the test system is OVCAR-4.
Assay [8] deals with OVCAR-8.
Assay [9] deals with RXF 393.
Assay [10] relates to SF-268.
For assay [11], the system named is SK-MEL-28.
In assay [12] the test system is SK-OV-3.
Assay [13] has as its system SN12C.
For assay [14], the system named is SNB-75.
In assay [15] the test system is SW-620.
Assay [16] relates to TK-10.
Assay [17] relates to UACC-257.
Assay [18] has as its system HCC 2998.
Assay [19] has as its system HOP-92.
In assay [20] the test system is SK-MEL-2.

This is an account of results in ChEMBL document CHEMBL1201862, “PubChem BioAssay data set” (2004).

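These data come from cells grown in 96-well plates and exposed to compound for 48 hours at five concentrations. GI50 = concentration required for 50% inhibition of growth.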 Calls of active or inactive are those of the source. No stated cut-off is given here; in the data, active = GI50 up to about 1.1 µM and inactive = higher.

As for `CN(C)CC/C(=N\Nc1ccc(Cl)c(Cl)c1)c1ccccc1`, the GI50 in assay [1] was 2.11 µM (inactive); in [2], 1.82 µM (inactive); in assay [3], 2.4 µM (inactive); in assay [4] it was 1.93 µM (inactive); in assay [5], 1.84 µM (inactive); in assay [6], 2.16 µM (inactive). Moreover, the GI50 in [7] is 2.58 µM (inactive); in assay [8], 1.87 µM (inactive); in assay [9], 2.55 µM (inactive); in [10], 1.79 µM (inactive); in assay [11] it was 2.52 µM (inactive); in [12], 3.72 µM (inactive). Besides, the GI50 was 2.14 µM (inactive) in assay [13]; 2.4 µM (inactive) in assay [14]; 1.72 µM (inactive) in assay [15]; 1.98 µM (inactive) in [16]; 3 µM (inactive) in assay [17].
`C/C(Cl)=N\OC(=O)Nc1ccc(C)cc1`: the GI50 is 2.04 µM (inactive) in assay [1]; 18.3 µM (inactive) in assay [2]; 16.9 µM (inactive) in assay [18]; 46.9 µM (inactive) in [3]; 20.7 µM (inactive) in [19]; 9.91 µM (inactive) in [4]. Also, the GI50 is 20.7 µM (inactive) in [5]; 18.5 µM (inactive) in assay [7]; 17.9 µM (inactive) in [8]; 15.8 µM (inactive) in assay [10]; 14.5 µM (inactive) in assay [11]; 18.2 µM (inactive) in [20]. In addition, the GI50 in assay [12] was 17.3 µM (inactive); in [13], 15.7 µM (inactive); in assay [14], 12.8 µM (inactive); in assay [15], 16.8 µM (inactive); in assay [16] it was 15.2 µM (inactive); in [17], 18.7 µM (inactive).
Consider `Nc1nc(N)nc(CC(=O)O)n1`, for which the GI50 in [1], in assay [2], in [3], in [19], in assay [4] and in assay [5] was > 100 µM (inactive) in each case. For the same compound, the GI50 in [6], in [7], in assay [8], in assay [9], in assay [10] and in assay [11] was > 100 µM (inactive) throughout. The GI50 in [20], in assay [12], in assay [13], in [14], in assay [15] and in assay [16] was > 100 µM (inactive) in each case. The GI50 in [17] is > 100 µM (inactive).
With `OC1C2CN3CCN(C2)CC1(c1ccccc1)C3` (stereo not given), the GI50 in [2], in [3], in [4], in [5], in assay [6] and in [7] was > 100 µM (inactive) each time. In addition, the GI50 in assay [8], in assay [9], in assay [10], in [11], in [20] and in [13] was > 100 µM (inactive) in each case. Besides, the GI50 in assay [14], in assay [15], in [16] and in [17] was > 100 µM (inactive) each time.
`COc1ccc2nc3c([N+](=O)[O-])ccc(NCCN(C)C)c3c(N)c2c1`: the GI50 was 0.17 µM (active) in assay [1]; 1.71 µM (inactive) in [2]; 1.66 µM (inactive) in [3]; 0.695 µM (active) in assay [19]; 0.223 µM (active) in assay [4]; 1.69 µM (inactive) in assay [5]. Moreover, the GI50 in assay [7] was 1.24 µM (inactive); in assay [8], 1.66 µM (inactive); in assay [9], 1.57 µM (inactive); in [10], 1.34 µM (inactive); in [11], 2.14 µM (inactive); in [20], 2.37 µM (inactive). Besides, the GI50 in assay [12] was 1.61 µM (inactive); in [13] it was 1.33 µM (inactive); in assay [14] it was 1.08 µM (active); in assay [15], 0.181 µM (active); in [16], 1.6 µM (inactive); in assay [17] it was 1.91 µM (inactive).
As to `CC1=C(C(=O)O)N2C(=O)[C@@H](NC(=O)C(c3ccc(O)cc3)N3CSC(=S)N(C(C)C)C3)C2SC1` (stereo not given in full), the GI50 in [1] was 63.8 µM (inactive); in assay [2], > 100 µM (inactive); in assay [3] it was > 100 µM (inactive); in assay [19], > 100 µM (inactive); in assay [4] it was 57.8 µM (inactive); in assay [5], > 100 µM (inactive). For the same compound, the GI50 in assay [6] is 50.1 µM (inactive); in assay [7], > 100 µM (inactive); in assay [8], > 100 µM (inactive); in assay [10] it was > 100 µM (inactive); in assay [11], > 100 µM (inactive); in assay [20] it was > 100 µM (inactive). In addition, the GI50 in assay [12], in assay [13], in [14], in [16] and in assay [17] was > 100 µM (inactive) throughout.
Take `COC(=O)[C@]1(C)CCC[C@@]2(C)C1CCC1=CC3(C(C)C)CCC12OO3` (stereo not given in full): the GI50 is 31.2 µM (inactive) in assay [1]; 90.6 µM (inactive) in assay [2]; 88.5 µM (inactive) in [18]; > 100 µM (inactive) in assay [3]; 27.7 µM (inactive) in assay [4]; 77.1 µM (inactive) in assay [5]. Moreover, the GI50 in assay [6] was 40.5 µM (inactive); in [7] it was 51.3 µM (inactive); in [8] it was 63.8 µM (inactive); in assay [10] it was > 100 µM (inactive); in assay [20], 46.9 µM (inactive); in assay [12] it was > 100 µM (inactive). Further, the GI50 was 43.2 µM (inactive) in [13], > 100 µM (inactive) in [15], > 100 µM (inactive) in assay [16] and 31.5 µM (inactive) in assay [17].
Turning to `CC(=O)N(C)c1ccc(Nc2ccnc3ccc4nn(C)nc4c23)cc1`, the GI50 in assay [1] was 17.3 µM (inactive); in assay [2], 24.3 µM (inactive); in assay [3], 26 µM (inactive); in [5], 32.4 µM (inactive); in assay [6], 19 µM (inactive); in [7], 28.4 µM (inactive). Besides, the GI50 in assay [8] was 36.1 µM (inactive); in assay [9], 16.9 µM (inactive); in assay [10] it was 24.8 µM (inactive); in assay [11], 20.7 µM (inactive); in assay [20], 17.9 µM (inactive); in [12], 22.6 µM (inactive). Also, the GI50 in assay [13] is 26 µM (inactive); in assay [14] it was 21.3 µM (inactive); in [15] it was 35.3 µM (inactive); in assay [16], 22.3 µM (inactive); in assay [17] it was 21.7 µM (inactive).
On to `O=C1CN=C(C[N+](=O)[O-])c2ccccc21`, for which the GI50 in [2], in assay [3], in [19], in assay [4], in assay [5] and in assay [6] was > 100 µM (inactive) throughout. Further, the GI50 in assay [7], in assay [8], in [10], in assay [11], in assay [20] and in assay [12] was > 100 µM (inactive) throughout. In addition, the GI50 in assay [13], in assay [14], in assay [15] and in assay [17] was > 100 µM (inactive) in each case.
As to `CN1C(=S)CSc2ccccc21`, the GI50 in assay [1] is > 100 µM (inactive); in assay [2] it was 44.1 µM (inactive); in [3], > 100 µM (inactive); in assay [19], 90.2 µM (inactive); in [4], > 100 µM (inactive); in assay [5] it was > 100 µM (inactive). Also, the GI50 in assay [6], in assay [7], in [8], in assay [9], in assay [10] and in assay [11] was > 100 µM (inactive) in each case. Further, the GI50 was > 100 µM (inactive) in assay [20]; > 100 µM (inactive) in assay [12]; > 100 µM (inactive) in assay [13]; 42.9 µM (inactive) in assay [14]; > 100 µM (inactive) in [15]; > 100 µM (inactive) in assay [16]. The GI50 in assay [17] is > 100 µM (inactive).
As for `Cc1nnc2nc(-c3ccc(Cl)cc3Cl)cc(-c3ccc(Cl)cc3)n12`, the GI50 in [1] is > 100 µM (inactive); in [3] it was > 100 µM (inactive); in assay [19] it was 1.47 µM (inactive); in assay [4], 50.4 µM (inactive); in [5], > 100 µM (inactive); in assay [7], 23.3 µM (inactive). In addition, the GI50 in assay [8] is > 100 µM (inactive); in assay [10] it was 83.9 µM (inactive); in [11], 21 µM (inactive); in assay [12], > 100 µM (inactive); in assay [13], > 100 µM (inactive); in assay [15], > 100 µM (inactive). Moreover, the GI50 in assay [16] and in [17] was > 100 µM (inactive) in each case.
As for `O=S(=O)(N/N=C1\CC2CCC1C2)c1ccccc1` (stereo not given), the GI50 in assay [1], in assay [2], in [3], in assay [19], in assay [4] and in assay [5] was > 100 µM (inactive) throughout. The GI50 in assay [6], in assay [7], in [8], in assay [10], in assay [11] and in assay [20] was > 100 µM (inactive) each time. Also, the GI50 in assay [12], in assay [13], in assay [14], in assay [15], in [16] and in [17] was > 100 µM (inactive) each time.
